The results in this text go back to article PMC8172577, “A Novel Antimicrobial Peptides From Pine Needles of Pinus densiflora Sieb. et Zucc. Against Foodborne Bacteria” (Frontiers in Microbiology, 2021).

Converted amounts (≈) assume the structure as drawn. Read-outs that look alike come from different tables or passages of the source. Where no end group is shown, it is not given here.

What all share (type): cell-based
The subject of data set [1] is Escherichia coli ATCC25922. The following applies: minimal concentration of peptide to inhibit microbial growth; 5 × 10^5 CFU/ml, 18 h at 37°C, OD 600 nm. As to the method: (§1) For antimicrobial assays, Escherichia coli ATCC 25922, Pseudomonas aeruginosa ATCC 15692, Staphylococcus aureus ATCC 25923, and Staphylococcus epidermidis ATCC 12228 were obtained from the American Type Culture Collection (Manassas, VA, United States). Salmonella typhimurium KCTC 1926 and Listeria monocytogenes KCTC 3710 were obtained from the Korean Collection for Type Cultures (Jeollabuk-do, Korea).
(§2) Minimum inhibitory concentrations (MICs) of purified PN peptides were assayed according to the Clinical and Laboratory Standards Institute recommendations ([Wiegand et al., 2008]). Briefly, bacterial suspension (5 × 10^5 CFU/ml), obtained by diluting an exponential growth phase culture, was then added into the 96-well plates containing 2-fold serial dilutions of each fraction, the plates were incubated for 18 h at 37°C. MICs of PN peptides were measured in optical density at 600 nm using Versamax™ ELISA Microplate Reader (Molecular Devices, Sunnyvale, CA, United States). PBS, culture media, and melittin were used as growth and growth inhibition controls. The MIC was defined as the lowest concentration of PN peptide that was able to inhibit microbial growth.

Data set [2] deals with Listeria monocytogenes KCTC3710. The note with it: minimal concentration of peptide to inhibit microbial growth; 5 × 10^5 CFU/ml, 18 h at 37°C, OD 600 nm. As to the method: as §1, §2
Data set [3] concerns Salmonella typhimurium KCTC1926. The note with it: minimal concentration of peptide to inhibit microbial growth; 5 × 10^5 CFU/ml, 18 h at 37°C, OD 600 nm. Here is the method: as §1, §2
For data set [4], the system named is Staphylococcus aureus ATCC25923. The note with it: for Increased in MIC (fold): compared to the soluble extract. Here is the method: as §1, §2
Data set [5] relates to mouse red blood cells (mRBCs). Put plainly: Hemolytic activity. The following applies: 60 min at 37°C. Here is the method:
Hemolysis was determined using the mouse red blood cells (mRBCs). Fresh mRBCs were collected in PBS and washed three times with PBS (final mRBC concentration, 8% v/v). […] Hemolytic activity was monitored at an absorbance (A) of 414 nm and calculated as a positive control [0.1% Triton X-100 (Atriton)] and negative control [PBS (Ablank)]. The resulting values of cells that underwent hemolysis were calculated according to equation ([Park et al., 2008]):
(1) Hemolysis=[(Asample−Ablank)/(Atriton−Ablank)]×100%

Data set [6] relates to HaCaT (human keratinocytes) cells. Put plainly: Cytotoxicity, MTT assay, HaCaT. Here is the method:
(§3) The cytotoxic effect of PN peptides was assessed against HaCaT (human keratinocytes) and RAW264.7 (mouse macrophages) cells cultured in 96-well plates at a density of 2 × 10^4 cells/well in Dulbecco’s modified Eagle medium (DMEM) containing 10% fetal bovine serum. MTT [3-(4,5-dimethylthiazol-2-yl)-2,5-diphenyltetrazolium bromide] assays were used to evaluate cytotoxicity. PN peptides (0–200 μg/ml) were added with the cells for 24 h at 37°C. Subsequently, MTT (0.5 mg/ml) was added to each well and incubated for 4 h at 37°C After incubation, formazan crystals produced was dissolved in dimethyl sulfoxide, and the absorbance at 570 nm was measured and cytotoxicity was determined as a percentage of 100% cytotoxic control (0.1% Triton X-100; [Park et al., 2008]). Melittin was used as the control (reference) peptide.
Background: Tetrazolium assays rely on reduction of a dye to a coloured formazan, in cell work by metabolically active cells.

Data set [7] has as its system RAW264.7 (mouse macrophages) cells. Put plainly: Cytotoxicity, MTT assay, RAW264.7. The following applies: 12.5 μg/ml, 24 h. As to the method: as §3
Setting [8] is: minimal concentration of peptide to inhibit microbial growth, 5 × 10^5 CFU/ml, 18 h at 37°C, OD 600 nm.

The MIC is the least concentration at which growth counts as inhibited. Read a high MIC as a less susceptible organism. As for FKFLARTGKFL [PN5], the MIC in data set [1] is 64 mg/L; in data set [2] it was 32 mg/L; in data set [3], 64 mg/L; in data set [4] (setting [8]), 32 mg/L. The hemolysis result in data set [5] (200 μg/ml, 8% v/v mRBCs in PBS, A414, vs 0.1% Triton X-100, n = 3) is “approximately 5%”. The compound further had a cytotoxicity in data set [6] (200 μg/ml, 24 h at 37°C, vs 0.1% Triton X-100, n = 3) of 19%.
Take FKFLARTGKFL-NH2 [PN5-NH2]: the minimum inhibitory concentration (MIC) was determined as 64 mg/L in data set [1], 32 mg/L in data set [2], 32 mg/L in data set [3] and 16 mg/L in data set [4] (setting [8]).
As to “FKFLARTGKFL [PN-#5, peptide purified from pine needles of Pinus densiflora by RP-HPLC, peak 5]”, the minimum inhibitory concentration (MIC) in data set [1] came out at 64 mg/L; in data set [2] it was 32 mg/L; in data set [3], 64 mg/L; in data set [4] (fraction after First C18 RP-HPLC, S. aureus ATCC25923), 600 mg/L; in data set [4] (fraction after Second C18 RP-HPLC, S. aureus ATCC25923), 32 mg/L; in data set [4] (setting [8]), 32 mg/L. The “Increased in MIC (fold)” value in data set [4] (after First C18 RP-HPLC) turned out to be 12.5 fold; in data set [4] (after Second C18 RP-HPLC) it was 234.4 fold.
Consider `CC[C@H](C)[C@H](NC(=O)CN)C(=O)NCC(=O)N[C@@H](C)C(=O)N[C@H](C(=O)N[C@@H](CC(C)C)C(=O)N[C@@H](CCCCN)C(=O)N[C@H](C(=O)N[C@@H](CC(C)C)C(=O)N[C@H](C(=O)N[C@H](C(=O)NCC(=O)N[C@@H](CC(C)C)C(=O)N1CCC[C@H]1C(=O)N[C@@H](C)C(=O)N[C@@H](CC(C)C)C(=O)N[C@H](C(=O)N[C@@H](CO)C(=O)N[C@@H](Cc1c[nH]c2ccccc12)C(=O)N[C@H](C(=O)N[C@@H](CCCCN)C(=O)N[C@@H](CCCNC(=N)N)C(=O)N[C@@H](CCCCN)C(=O)N[C@@H](CCCNC(=N)N)C(=O)N[C@@H](CCC(N)=O)C(=O)N[C@@H](CCC(N)=O)C(N)=O)[C@@H](C)CC)[C@@H](C)CC)[C@@H](C)O)[C@@H](C)O)C(C)C)C(C)C` [Melittin, reference compound], for which the MIC came to 4 mg/L (≈ 1.41 µM) in data set [2] and 2 mg/L (≈ 0.703 µM) in data set [3]. The “hemolysis at the lowest concentration” value in data set [5] (3 μg/ml, 8% v/v mRBCs) was “induced hemolysis”. In addition, the “lysis (cytotoxicity)” value is reported as 100% in data set [7] and 100% in data set [6] (12.5 μg/ml, 24 h).
